target: human Nav1.7 (Homo sapiens (Human), UniProt Q15858); test: FLIPR sodium dye assay (CoroNa Green AM Na+ dye, primary fluorescence assay); assay type: cell-based; settings: recombinant Nav1.7/HEK293 cells
Procedure: In vitro assays were performed in a recombinant cell line expressing cDNA encoding the alpha subunit (Nav1.7, SCN9a, PN1, NE) of human Nav1.7 (Accession No. NM_002977). The cell line was provided by investigators at Yale University (Cummins et al, J. Neurosci. 18(23): 9607-9619 (1998)). For dominant selection of the Nav1.7-expressing clones, the expression plasmid co-expressed the neomycin resistance gene. The cell line was constructed in the human embryonic kidney cell line, HEK293, under the influence of the CMV […] promoter, and stable clones were selected using limiting dilution cloning and antibiotic selection using the neomycin analogue, G418. Recombinant beta and gamma subunits were not introduced into this cell line. Additional cell lines expressing recombinant Nav1.7 cloned from other species can also be used, alone or in combination with various beta subunits, gamma subunits or chaperones.
Unless otherwise noted, cell culture reagents were purchased from Mediatech of Herndon, Va. The recombinant Nav1.7/HEK293 cells were routinely cultured in growth medium consisting of Dulbecco's […] essential medium containing 10% fetal bovine serum (FBS, Hyclone, Thermo Fisher Scientific, Logan, Utah), 100 U/mL penicillin, 100 μg/mL streptomycin, 2-4 mM L-glutamine, and […] G418. For natural, non-recombinant cell lines, the selective antibiotic was omitted, and additional media formulations can be applied as needed.
The final buffer consisted of 20 mM Hepes, pH 7.3, 1.261 mM CaCl2, 0.493 mM MgCl2, 0.407 mM Mg(SO)4, 5.33 mM KCl, 0.441 mM KH2PO4, 137 mM NaCl, 0.336 mM Na2HPO4 and […] D-glucose (Hanks et al., Proc. Soc. Exp. Biol. Med. 71:196 (1949)), and the simple formulation was typically the basic buffer throughout the assay (i.e., all wash and addition steps).
The fluorescence indicator used in the primary fluorescence assay was the cell permeant version of CoroNa™ Green (Invitrogen, Molecular Probes, Eugene, Oreg.), a dye that emits light in the fluorescence range (Harootunian et al., J. Biol. Chem. 264(32):19458-19467 (1989)). The intensity of this emission, but not the wavelength range, is increased when the dye is exposed to Na^+ ions, which it can bind with partial selectivity. Cells expressing Nav1.7 or other sodium channels were loaded with the CoroNa™ Green dye immediately in advance of the fluorescence assay, and then, after agonist stimulation, the mobilization of Na^+ ions was detected as the Na^+ ions flowed from the extracellular fluid into the cytoplasm through the activated sodium channel pores. The dye was stored in the dark as a lyophilized powder, and then an aliquot was dissolved immediately before the cell loading procedure, according to the instructions of the manufacturer, to a stock concentration of 10 mM in DMSO. It was then diluted in the assay buffer to a 4× concentrated working solution, so that the final concentration of dye in the cell loading buffer was 5 μM.
In the fluorescence assays, two agonists were used in combination, namely 1) veratridine; and 2) the venom from the yellow scorpion, Leiurus quinquestriatus hebraeus. Veratridine is an alkaloid small molecule that facilitates the capture of channel openings by inhibiting inactivation, and the scorpion venom is a natural preparation that includes peptide toxins selective for different subsets of voltage-gated sodium channels. These scorpion toxins inhibit the fast inactivation of their cognate target channels. Stock solutions of the agonists were prepared to 40 mM in DMSO (veratridine) and 1 mg/mL in dH2O (scorpion venom), and then diluted to make a 4× or 2× stock (depending on the particular assay) in assay buffer, the final concentration being 100 μM (veratridine) and 10 μg/mL (scorpion venom). Both of the agonists were purchased from Sigma Aldrich, St. Louis, Mo.
Test compounds were dissolved in DMSO to yield 10 mM stock solutions. […]

Chain of human Nav1.7 (Q15858 other isoform, or with tags, fused parts or gaps): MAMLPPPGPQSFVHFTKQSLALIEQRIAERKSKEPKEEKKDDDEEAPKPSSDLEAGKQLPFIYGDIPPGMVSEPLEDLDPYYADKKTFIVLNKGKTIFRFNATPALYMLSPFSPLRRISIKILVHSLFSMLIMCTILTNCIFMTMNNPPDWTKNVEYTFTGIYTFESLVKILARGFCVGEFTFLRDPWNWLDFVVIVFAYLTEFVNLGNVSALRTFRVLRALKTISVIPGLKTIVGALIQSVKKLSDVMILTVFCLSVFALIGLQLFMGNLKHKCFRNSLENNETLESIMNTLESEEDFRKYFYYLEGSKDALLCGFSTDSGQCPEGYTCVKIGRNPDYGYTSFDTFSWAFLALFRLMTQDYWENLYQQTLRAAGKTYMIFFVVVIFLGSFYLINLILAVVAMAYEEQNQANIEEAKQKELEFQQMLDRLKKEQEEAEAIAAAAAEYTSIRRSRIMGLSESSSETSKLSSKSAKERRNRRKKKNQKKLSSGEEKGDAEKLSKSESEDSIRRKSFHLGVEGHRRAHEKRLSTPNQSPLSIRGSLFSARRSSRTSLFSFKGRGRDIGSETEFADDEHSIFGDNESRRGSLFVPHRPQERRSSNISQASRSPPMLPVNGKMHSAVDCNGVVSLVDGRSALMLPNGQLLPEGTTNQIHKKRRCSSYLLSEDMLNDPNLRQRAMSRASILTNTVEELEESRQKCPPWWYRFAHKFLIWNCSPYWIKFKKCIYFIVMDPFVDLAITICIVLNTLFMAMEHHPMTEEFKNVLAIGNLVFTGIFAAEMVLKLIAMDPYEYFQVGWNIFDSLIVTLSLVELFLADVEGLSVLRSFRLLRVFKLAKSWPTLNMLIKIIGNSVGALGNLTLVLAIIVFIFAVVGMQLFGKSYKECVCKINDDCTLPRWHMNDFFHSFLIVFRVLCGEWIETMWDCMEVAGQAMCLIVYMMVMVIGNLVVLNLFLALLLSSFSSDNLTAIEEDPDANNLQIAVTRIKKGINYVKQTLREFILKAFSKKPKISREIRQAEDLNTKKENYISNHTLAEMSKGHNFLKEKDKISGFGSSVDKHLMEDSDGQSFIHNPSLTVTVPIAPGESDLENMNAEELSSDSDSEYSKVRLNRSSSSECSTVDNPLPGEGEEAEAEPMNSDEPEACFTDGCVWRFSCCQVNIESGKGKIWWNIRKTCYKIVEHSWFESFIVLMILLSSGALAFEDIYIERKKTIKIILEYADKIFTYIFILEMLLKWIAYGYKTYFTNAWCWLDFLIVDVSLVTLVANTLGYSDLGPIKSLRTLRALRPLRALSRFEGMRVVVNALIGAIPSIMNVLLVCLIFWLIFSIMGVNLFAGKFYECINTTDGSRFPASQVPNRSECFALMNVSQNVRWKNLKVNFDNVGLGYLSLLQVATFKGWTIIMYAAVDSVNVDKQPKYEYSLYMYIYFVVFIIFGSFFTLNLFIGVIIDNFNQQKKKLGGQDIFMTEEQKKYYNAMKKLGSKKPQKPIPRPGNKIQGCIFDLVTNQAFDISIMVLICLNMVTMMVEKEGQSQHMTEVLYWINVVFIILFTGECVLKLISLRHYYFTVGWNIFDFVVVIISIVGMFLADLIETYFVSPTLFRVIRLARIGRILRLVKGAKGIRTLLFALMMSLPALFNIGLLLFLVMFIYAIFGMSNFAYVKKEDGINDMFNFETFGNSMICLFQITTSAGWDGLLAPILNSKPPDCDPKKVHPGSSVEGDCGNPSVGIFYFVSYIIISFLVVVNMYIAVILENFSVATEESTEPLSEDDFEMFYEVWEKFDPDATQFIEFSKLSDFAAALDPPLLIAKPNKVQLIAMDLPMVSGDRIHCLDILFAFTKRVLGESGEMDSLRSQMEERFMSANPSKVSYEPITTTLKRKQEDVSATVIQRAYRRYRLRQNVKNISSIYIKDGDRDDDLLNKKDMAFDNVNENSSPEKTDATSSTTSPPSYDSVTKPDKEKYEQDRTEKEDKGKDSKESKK

Q: For `NC(=O)c1cccc(-c2ccc(Oc3ccc(C(F)(F)F)cc3CNC3CCNC3)cc2)n1` (centres unmarked) [compound 61, 6-(4-(2-((pyrrolidin-3-ylamino)methyl)-4-(trifluoromethyl)phenoxy)phenyl) picolinamide], which IC50 is on record?
A: The IC50 was 2.04 ± 0.06 µM.

Q: `NC(=O)c1cccc(-c2ccc(Oc3ccc(C(F)(F)F)c(CN4CC(N)C4)c3)cc2)n1` [compound 62, 6-(4-(3-((3-aminoazetidin-1-yl)methyl)-4-(trifluoromethyl)phenoxy)phenyl) picolinamide] was tested. Which IC50 did it give?
A: The IC50 was 0.31 ± 0.066 µM.

Q: How did the IC50 turn out when `NC(=O)c1cccc(-c2ccc(Oc3ccc(C(F)(F)F)cc3C(O)C[N+](=O)[O-])cc2)n1` (centres unmarked) [compound 63, 6-(4-(2-(1-hydroxy-2-nitroethyl)-4-(trifluoromethyl)phenoxy)-phenyl)picolinamide] was run?
A: Its IC50 is 0.337 ± 0.056 µM.

Q: How did the IC50 turn out when `NCC(O)c1cc(C(F)(F)F)ccc1Oc1ccc(-c2cccc(C(N)=O)n2)cc1` (centres unmarked) [compound 64, 6-(4-(2-(2-amino-1-hydroxy-ethyl)-4-(trifluoromethyl)-phenoxy)phenyl)picolinamide] was run?
A: The IC50 was 2.14 ± 0.199 µM.

Q: How did the IC50 turn out when `NCc1cc(C(F)(F)F)ccc1Oc1ccc(-c2cccc(C(N)=O)n2)cc1` [compound 65, 6-(4-(2-(aminomethyl)-4-(trifluoromethyl)phenoxy)phenyl) picolinamide] was run?
A: The IC50 was 0.862 ± 0.012 µM.

Q: Which IC50 does the source give for `O=C1CN(Cc2cc(C(F)(F)F)ccc2Oc2ccc(-c3cccc([C@H](O)CO)n3)cc2)CCN1` [compound 74, (S)-4-(2-(4-(6-(1,2-dihydroxyethyl)pyridin-2-yl)phenoxy)-5-(trifluoro-methyl)benzyl)piperazin-2-one] here?
A: The IC50 was 0.672 ± 0.059 µM.

Q: For `OC[C@@H](O)c1cccc(-c2ccc(Oc3ccc(C(F)(F)F)cc3CN3CC[C@H](O)C3)cc2)n1` [compound 75, (S)-1-(6-(4-(2-(((S)-3-hydroxypyrrolidin-1-yl)methyl)-4-(trifluoromethyl)phenoxy)-phenyl)pyridin-2-yl)ethane-1,2-diol], which IC50 is on record?
A: Its IC50 is 0.972 ± 0.114 µM.

Q: For `NC(=O)c1cccc(-c2ccc(Oc3ccc(C(F)(F)F)cc3[C@@H](O)CO)cc2)n1` [compound 77, (R)-6-(4-(2-(1,2-dihydroxyethyl)-4-(trifluoromethyl)-phenoxy)phenyl)picolinamide], which IC50 is on record?
A: Its IC50 is 2.45 ± 0.344 µM.

Q: With `NC(=O)c1cccc(-c2ccc(Oc3ccc(C(F)(F)F)cc3C(O)CN3CCNC(=O)C3)cc2)n1` (centres unmarked) [compound 79, 6-(4-(2-(1-hydroxy-2-(3-oxopiperazin-1-yl)ethyl)-4-(trifluoromethyl)phenoxy)phenyl) picolinamide] as the compound, how does the IC50 read?
A: The IC50 was greater than 20 µM.

Q: For `NC(=O)c1cccc(-c2ccc(Oc3ccc(C(F)(F)F)cc3C(C(N)=O)N3CCCC3)cc2)n1` (centres unmarked) [compound 81, 6-(4-(2-(2-amino-2-oxo-1-(pyrrolidin-1-yl)ethyl)-4-(trifluoromethyl)phenoxy)phenyl) picolinamide], which IC50 is on record?
A: Its IC50 is 0.71 ± 0.0008 µM.

Q: With `NC(=O)c1cccc(-c2ccc(Oc3ccc(C(F)(F)F)cc3C(C(N)=O)N3CCCCC3)cc2)n1` (centres unmarked) [compound 82, 6-(4-(2-(2-amino-2-oxo-1-(piperidin-1-yl)ethyl)-4-(trifluoromethyl)phenoxy)phenyl) picolinamide] as the compound, how does the IC50 read?
A: Its IC50 is 2.72 ± 0.264 µM.

Q: With `CCCNC(C(N)=O)c1cc(C(F)(F)F)ccc1Oc1ccc(-c2cccc(C(N)=O)n2)cc1` (centres unmarked) [compound 83, 6-(4-(2-(2-amino-2-oxo-1-(propylamino)ethyl)-4-(trifluoromethyl)phenoxy)phenyl) picolinamide] as the compound, how does the IC50 read?
A: The IC50 was 6.05 ± 1.33 µM.

Q: How did the IC50 turn out when `CN(C)C(C(N)=O)c1cc(C(F)(F)F)ccc1Oc1ccc(-c2cccc(C(N)=O)n2)cc1` (centres unmarked) [compound 84, 6-(4-(2-(2-amino-1-(dimethylamino)-2-oxoethyl)-4-(trifluoromethyl)phenoxy)phenyl) picolinamide] was run?
A: The IC50 was 10 to 20 µM.

Q: How did the IC50 turn out when `CCN(CC)C(C(N)=O)c1cc(C(F)(F)F)ccc1Oc1ccc(-c2cccc(C(N)=O)n2)cc1` (centres unmarked) [compound 85, 6-(4-(2-(2-amino-1-(diethylamino)-2-oxoethyl)-4-(trifluoromethyl)phenoxy)phenyl) picolinamide] was run?
A: The IC50 was 0.561 ± 0.024 µM.

Q: `NC(=O)c1cccc(-c2ccc(Oc3ccc(F)cc3)cc2Cl)n1` [compound 86, 6-(2-chloro-4-(4-fluorophenoxy)-phenyl)picolinamide] was tested. Which IC50 did it give?
A: Its IC50 is 0.49 ± 0.041 µM.

Q: `NC(=O)c1cccc(-c2ccc(Oc3ccc(F)cc3)c(Cl)c2)n1` [compound 87, 6-(3-chloro-4-(4-fluorophenoxy)-phenyl)picolinamide] was tested. Which IC50 did it give?
A: Its IC50 is 0.128 ± 0.03 µM.

Q: How did the IC50 turn out when `N#Cc1cc(-c2cccc(C(N)=O)n2)ccc1Oc1ccc(F)cc1` [compound 89] was run?
A: Its IC50 is greater than 20 µM.

Q: With `NC(=O)c1cccc(-c2ccc(Oc3ccc(F)cc3)c(C(F)(F)F)c2)n1` [compound 90, 6-(4-(4-fluorophenoxy)-3-(trifluoromethyl)phenyl)picolin-amide] as the compound, how does the IC50 read?
A: Its IC50 is greater than 20 µM.

Q: With `NC(=O)c1cccc(-c2ccc(Oc3ccc(F)cc3)cc2C(F)(F)F)n1` [compound 91, 6-(4-(4-fluorophenoxy)-2-(trifluoromethyl)phenyl)picolin-amide] as the compound, how does the IC50 read?
A: The IC50 was 0.577 ± 0.056 µM.

Q: `CN(c1ccccc1)c1cc(-c2cccc(C(N)=O)n2)ccc1Oc1ccc(F)cc1` [compound 92, 6-(4-(4-fluorophenoxy)-3-(methyl(phenyl)amino)phenyl) picolinamide] was tested. Which IC50 did it give?
A: Its IC50 is greater than 20 µM.

Q: For `CN(Cc1cc(-c2cccc(C(N)=O)n2)ccc1Oc1ccc(F)cc1)c1ccc(C(=O)O)cc1` [compound 93, 4-((5-(6-carbamoylpyridin-2-yl)-2-(4-fluorophenoxy)benzyl)-(methyl)amino)benzoic acid], which IC50 is on record?
A: Its IC50 is greater than 20 µM.

Q: With `NC(=O)c1cccc(-c2ccc(Oc3ccc(F)cc3)c(COc3ccc(Cl)cc3I)c2)n1` [compound 94, 6-(3-((4-chloro-2-iodophenoxy)methyl)-4-(4-fluorophenoxy)phenyl) picolinamide] as the compound, how does the IC50 read?
A: Its IC50 is greater than 20 µM.

Q: How did the IC50 turn out when `CCN(CC)Cc1cc(-c2cccc(C(N)=O)n2)ccc1Oc1ccc(F)cc1` [compound 95, 6-(3-((diethylamino)methyl)-4-(4-fluorophenoxy)phenyl) picolinamide] was run?
A: Its IC50 is 1.33 ± 0.209 µM.

Q: Which IC50 does the source give for `CCOCc1cc(-c2cccc(C(N)=O)n2)ccc1Oc1ccc(F)cc1` [compound 96, 6-(3-(ethoxymethyl)-4-(4-fluorophenoxy)phenyl) picolinamide] here?
A: Its IC50 is 1.13 ± 0.11 µM.

Q: With `NC(=O)c1cccc(-c2ccc(Oc3ccc(F)cc3)c(CN3CCCC3)c2)n1` [compound 97, 6-(4-(4-fluorophenoxy)-3-(pyrrolidin-1-ylmethyl)phenyl)-picolinamide] as the compound, how does the IC50 read?
A: The IC50 was 4.24 ± 0.919 µM.

Q: With `NC(=O)c1cccc(-c2ccc(Oc3ccc(F)cc3)c(CN3CCOCC3)c2)n1` [compound 98, 6-(4-(4-fluorophenoxy)-3-(morpholinomethyl)phenyl)picolin-amide] as the compound, how does the IC50 read?
A: Its IC50 is 0.961 ± 0.07 µM.

Q: Which IC50 does the source give for `NC(=O)c1cccc(-c2ccc(Oc3ccc(F)cc3)cc2F)n1` [compound 99, 6-(2-fluoro-4-(4-fluorophenoxy)-phenyl)picolinamide] here?
A: The IC50 was 0.55 ± 0.057 µM.

Q: How did the IC50 turn out when `NC(=O)c1cccc(-c2ccc(Oc3ccc(F)cc3)c(-c3ccc(Cl)cc3)c2)n1` [compound 100, 6-(4′-chloro-6-(4-fluorophenoxy)-[1,1′-biphenyl]-3-yl)picolinamide] was run?
A: The IC50 was 0.276 ± 0.063 µM.

Q: With `NC(=O)c1cccc(-c2ccc(Oc3ccc(F)cc3)c(-c3nn[nH]n3)c2)n1` [compound 101, 6-(4-(4-fluorophenoxy)-3-(2H-tetrazol-5-yl)phenyl)picolinamide] as the compound, how does the IC50 read?
A: Its IC50 is 1.83 ± 0.383 µM.

Q: `CN(Cc1cc(-c2cccc(C(N)=O)n2)ccc1Oc1ccc(F)cc1)c1ccccc1` [compound 102, 6-(4-(4-fluorophenoxy)-3-((methyl(phenyl)amino)methyl)phenyl)picolinamide] was tested. Which IC50 did it give?
A: Its IC50 is 1.3 ± 0.126 µM.

Q: How did the IC50 turn out when `COCc1cc(-c2cccc(C(N)=O)n2)ccc1Oc1ccc(F)cc1` [compound 103, 6-(4-(4-fluorophenoxy)-3-(methoxymethyl)phenyl)picolin-amide] was run?
A: The IC50 was 0.312 ± 0.008 µM.

Q: Which IC50 does the source give for `NC(=O)c1cccc(-c2ccc(Oc3ccc(F)cc3)c(COc3ccc(F)cc3)c2)n1` [compound 104, 6-(4-(4-fluorophenoxy)-3-((4-fluorophenoxy)methyl)phenyl) picolinamide] here?
A: Its IC50 is greater than 20 µM.
